“Also recorded” adds a separate entry of the source.
What was measured:
HM mCherry-GFP-LC3 cells = assay: Autophagic flux assay by flow cytometry in HM mCherry-GFP-LC3 cells; type: cell-based, human; settings: compounds at 10 µM and 40 µM, 24 h, compared to control
Experimental: Consequently, the autolysosomes manifest red fluorescence. Consequently, the red fluorescence observed in the cells can be used as a marker for the formation of autolysosomes. The extent of red fluorescence can be used as an indicator of the efficiency of the flux from the autophagosome to the autolysosome. The bioactivity of all compounds on autophagic flux was evaluated using HM mCherry-GFP-LC3 cells by flow cytometry. In summary, the HM mCherryGFP-LC3 cells were cultured in 12-well plates for 24 h in DMEM (Dulbecco’s modified Eagle medium) supplemented with 10% fetal bovine serum (Gibco-BRL, 10099–141, Gaithersburg, MD, USA) in a 37 ◦C incubator with 5% CO2 at 95% humidity. Subsequently, the compounds were introduced directly to the culture medium, resulting in final concentrations of 10 µM and 40 µM. Rapamycin was used as a positive control. Twenty-four hours following the administration of the treatment, the cells were harvested and fixed using 4% paraformaldehyde (PFA). […] The data were analyzed using the FlowJo software v10 (BD Biosciences, Franklin Lakes, NJ, USA).
Data analyses were carried out by using GraphPad Prism 8 (GraphPad Software, Inc., La Jolla, CA, USA). The one-way ANOVA (analysis of variance) was performed using Dunnett’s post hoc test for comparison between the treated group and control group, and the values were expressed as mean ± standard deviation (SD). […]

[1] = for BBB permeability (in words): PAMPA-BBB; for Prediction of penetration to the CNS: class from logPe in PAMPA-BBB
Experimental: We used the parallel artificial membrane permeability assay for BBB (PAMPA-BBB) to determine the brain permeability of compounds 1 and 12 [22]. The compounds 1 and 12 were prepared with methyl alcohol at the concentration of 4 mg/mL. These were diluted with PBS (Phosphate Buffer Saline; pH = 7.4) to obtain the donor solutions 100 μg/mL PAMPA “sandwich”, consisting of a donor 96-well microliter plate and matching filter plate coated with 5 μL of 2% lecithin/dodecane. Compounds 1 and 12 were added to the wells (150 μL/well) of the pre-coated filter, and PBS was added to the wells (300 μL/well) of the receiver plate. The filter plate was coupled with the receiver plate, and the plate couple was incubated in the thermostat at 37 °C for 16 h. After incubation, the plates were separated, and the samples from each well of both the filter plate and the receiver plate were sucked out and analyzed by HPLC.

| SMILES | bioactivity towards autophagic flux (HM mCherry-GFP-LC3 cells) | BBB permeability (in words) [1] | Prediction of penetration to the CNS [1] |
| --- | --- | --- | --- |
| C=C1[C@H](OC(=O)/C(C)=C/C)[C@@H](OC(C)=O)[C@@H](OC(C)=O)C(C)(C)/C=C/[C@H](C)[C@@H](OC(C)=O)[C@@]2(O)C[C@@](C)(OC(C)=O)[C@H](OC(=O)c3ccccc3)[C@@H]2[C@H]1OC(C)=O [Compound 12, euphpepluone F] | most promising activity; also recorded: significant activity on autophagic flux | relatively high BBB permeability; also recorded: ability to penetrate the blood–brain barrier (BBB) | CNS + (+ is logPe > −6.0) |
| CC(C)NCC(O)COc1cccc2ccccc12 (centres unmarked) [Propranolol, propranolol, reference compound] |  |  | CNS ++ (++ is logPe > −5.0) |
| C=C1C(OC(=O)C(C)C)C(O)C(OC(=O)c2ccccc2)C(C)(C)C=CC(C)C(OC(C)=O)C2(O)CC(C)(OC(C)=O)C(OC(=O)c3ccccc3)C2C1OC(C)=O (centres unmarked) [Compound 1, Euphjatrophane H] | most promising activity; also recorded: significant activity on autophagic flux | relatively high BBB permeability; also recorded: ability to penetrate the blood–brain barrier (BBB) | CNS ++ (++ is logPe > −5.0) |
| NC(=O)N1c2ccccc2C=Cc2ccccc21 [Carbamazepine, carbamazepine, reference compound] |  |  | CNS ++ (++ is logPe > −5.0) |

— paper PMC11719499 (International Journal of Molecular Sciences, 2024)
